# Patent US12077503B2, “Substituted cyclic amides and their use as herbicides” (FMC CORPORATION, priority 2015, dated 2024)
# How the values were obtained:
# Type in all cases: in vivo
# [1] = system: barnyardgrass (Echinochloa crus-galli); test: Test A preemergence; conditions: for Plant response rating, Barnyardgrass: 125 g ai/ha, preemergence, 0 to 100 scale (0 no effect, 100 complete control); for Barnyardgrass plant response rating (0 to 100 scale, 0 is no effect, 100 is complete control): Preemergence, 500 g ai/ha, visual injury approx. 10 d
# Outline: (§1)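 Each rating is a visual injury score from 0 to 100 given about 10 d after treatment, judged against untreated controls kept alongside in the greenhouse. In loam soil–sand blend, seeds got a preemergence directed soil spray, while postemergence plants were 2 to 10 cm tall at spraying.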
# [2] = system: ragweed (common ragweed, Ambrosia elatior); test: Test A preemergence; conditions: for Plant response rating, Ragweed: 125 g ai/ha, preemergence, 0 to 100 scale (0 no effect, 100 complete control); for Ragweed plant response rating (0 to 100 scale, 0 is no effect, 100 is complete control): Preemergence, 500 g ai/ha, visual injury approx. 10 d
# Outline: as §1
# Kochia (Kochia scoparia) [3] = test: Test A preemergence; conditions: for Plant response rating, Kochia: 125 g ai/ha, preemergence, 0 to 100 scale (0 no effect, 100 complete control); for Kochia plant response rating (0 to 100 scale, 0 is no effect, 100 is complete control): Preemergence, 500 g ai/ha, visual injury approx. 10 d
# Outline: as §1
# [4] = system: pigweed (Amaranthus retroflexus); test: Test A preemergence; conditions: for Plant response rating, Pigweed: 125 g ai/ha, preemergence, 0 to 100 scale (0 no effect, 100 complete control); for Pigweed plant response rating (0 to 100 scale, 0 is no effect, 100 is complete control): Preemergence, 500 g ai/ha, visual injury approx. 10 d
# [5] = system: ryegrass, Italian (Italian ryegrass, Lolium multiflorum); test: Test A preemergence; conditions: for Plant response rating, Ryegrass, Italian: 125 g ai/ha, preemergence, 0 to 100 scale (0 no effect, 100 complete control); for Ryegrass, Italian plant response rating (0 to 100 scale, 0 is no effect, 100 is complete control): Preemergence, 500 g ai/ha, visual injury approx. 10 d
# Outline: as §1
# [6] = system: giant foxtail (Setaria faberii); test: Test A preemergence; conditions: for Plant response rating, Foxtail, Giant: 125 g ai/ha, preemergence, 0 to 100 scale (0 no effect, 100 complete control); for Foxtail, Giant plant response rating (0 to 100 scale, 0 is no effect, 100 is complete control): Preemergence, 500 g ai/ha, visual injury approx. 10 d
# Outline: as §1
# [7] = system: barnyardgrass (Echinochloa crus-galli); test: Test B flooded paddy test; conditions: Flood, 0 to 100 scale where 0 is no effect and 100 is complete control, 13 to 15 d
# Outline: (§2)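 Response scored visually against untreated controls, 0 = no effect and 100 = complete control, 13–15 d after treatment in the greenhouse. Compounds added to paddy water held 3 cm above soil surface. Treatment given at 2-leaf stage.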
# [8] = system: sedge, umbrella (small-flower umbrella sedge, Cyperus difformis); test: Test B flooded paddy test; conditions: Flood, 0 to 100 scale where 0 is no effect and 100 is complete control, 13 to 15 d
# Outline: as §2
# rice (Oryra sativa) = test: Test B flooded paddy test; conditions: Flood, 0 to 100 scale where 0 is no effect and 100 is complete control, 13 to 15 d
# Outline: as §2
# [9] = system: ducksalad (Heteranthera limosa); test: Test B flooded paddy test; conditions: Flood, 0 to 100 scale where 0 is no effect and 100 is complete control, 13 to 15 d
# Outline: as §2
# [10] = system: pigweed (Amaranthus retroflexus); test: Test C preemergence; conditions: scale 0 to 100, 0 no effect, 100 complete control
# Source text: Seeds of plant species selected from blackgrass (Alopecurus myosuroides), ryegrass, Italian (Italian ryegrass, Lolium multiflorum), wheat (winter wheat, Triticum aestivum), Galium (catchweed bedstraw, Galium aparine), corn (Zea mays), crabgrass, large (large crabgrass, Digitaria sanguinalis), foxtail, giant (giant foxtail, Setaria faberii), johnsongrass (Sorghum halepense), lambsquarters (Chenopodium album), morningglory (Ipomoea coccinea), nutsedge, yellow (yellow nutsedge, Cyperus esculentus), pigweed (Amaranthus retroflexus), ragweed (common ragweed, Ambrosia elatior), soybean (Glycine max), barnyardgrass (Echinochloa crus-galli), oilseed rape (Brassica napus), waterhemp (common waterhemp, Amaranthus rudis) and velvetleaf (Abutilon theophrasti) were planted into a blend of loam soil and sand and treated preemergence with test chemicals formulated in a non-phytotoxic solvent mixture which included a surfactant.
# At the same time, plants selected from these crop and weed species and also Kochia (Kochia scoparia), oat, wild (wild oat, Avena fatua), and chickweed (common chickweed, Stellaria media) were planted in pots containing Sunshine Redi-Earth® planting medium comprising spaghnum peat moss, vermiculite, starter nutrients and dolomitic limestone and treated with postemergence applications of test chemicals formulated in the same manner. Plants ranged in height from 2 to 18 cm (1- to 4-leaf stage) for postemergence treatments. Treated plants and controls were maintained in a greenhouse for 13 to 15 d, after which time all species were compared to controls and visually evaluated. Plant response ratings, summarized in Table C, are based on a scale of 0 to 100 where 0 is no effect and 100 is complete control. A dash (-) response means no test result.
# [11] = system: barnyardgrass (Echinochloa crus-galli); test: Test A postemergence; conditions: postemergence; for Barnyardgrass plant response rating: 125 g ai/ha, visual injury rating on 0 to 100 scale (0 no effect, 100 complete control), approx. 10 d; for Plant response rating, Barnyardgrass: 500 g ai/ha, 0 to 100 scale, 0 no effect, 100 complete control
# Outline: as §1
# [12] = system: ragweed (common ragweed, Ambrosia elatior); test: Test A postemergence; conditions: postemergence; for Ragweed plant response rating: 125 g ai/ha, visual injury rating on 0 to 100 scale (0 no effect, 100 complete control), approx. 10 d; for Plant response rating, Ragweed: 500 g ai/ha, 0 to 100 scale, 0 no effect, 100 complete control
# Outline: as §1
# [13] = system: Galium (catchweed bedstraw, Galium aparine); test: Test A postemergence; conditions: postemergence; for Galium plant response rating: 125 g ai/ha, visual injury rating on 0 to 100 scale (0 no effect, 100 complete control), approx. 10 d; for Plant response rating, Galium: 500 g ai/ha, 0 to 100 scale, 0 no effect, 100 complete control
# Outline: as §1
# corn (Zea mays) = test: Test A postemergence; conditions: postemergence; for Corn plant response rating: 125 g ai/ha, visual injury rating on 0 to 100 scale (0 no effect, 100 complete control), approx. 10 d; for Plant response rating, Corn: 500 g ai/ha, 0 to 100 scale, 0 no effect, 100 complete control
# Outline: as §1
# Kochia (Kochia scoparia) [14] = test: Test A postemergence; conditions: postemergence; for Kochia plant response rating: 125 g ai/ha, visual injury rating on 0 to 100 scale (0 no effect, 100 complete control), approx. 10 d; for Plant response rating, Kochia: 500 g ai/ha, 0 to 100 scale, 0 no effect, 100 complete control
# Outline: as §1
# [15] = system: wheat (Triticum aestivum); test: Test A postemergence; conditions: postemergence; for Wheat plant response rating: 125 g ai/ha, visual injury rating on 0 to 100 scale (0 no effect, 100 complete control), approx. 10 d; for Plant response rating, Wheat: 500 g ai/ha, 0 to 100 scale, 0 no effect, 100 complete control
# Outline: as §1
# [16] = system: pigweed (Amaranthus retroflexus); test: Test A postemergence; conditions: postemergence; for Pigweed plant response rating: 125 g ai/ha, visual injury rating on 0 to 100 scale (0 no effect, 100 complete control), approx. 10 d; for Plant response rating, Pigweed: 500 g ai/ha, 0 to 100 scale, 0 no effect, 100 complete control
# Outline: as §1
# [17] = system: ryegrass, Italian (Italian ryegrass, Lolium multiflorum); test: Test A postemergence; conditions: postemergence; for Ryegrass, Italian plant response rating: 125 g ai/ha, visual injury rating on 0 to 100 scale (0 no effect, 100 complete control), approx. 10 d; for Plant response rating, Ryegrass, Italian: 500 g ai/ha, 0 to 100 scale, 0 no effect, 100 complete control
# Outline: as §1
# [18] = system: giant foxtail (Setaria faberii); test: Test A postemergence; conditions: postemergence; for Foxtail, Giant plant response rating: 125 g ai/ha, visual injury rating on 0 to 100 scale (0 no effect, 100 complete control), approx. 10 d; for Plant response rating, Foxtail, Giant: 500 g ai/ha, 0 to 100 scale, 0 no effect, 100 complete control
# Outline: as §1
# [19] = system: blackgrass (Alopecurus myosuroides); test: Test A postemergence; conditions: postemergence; for Blackgrass plant response rating: 125 g ai/ha, visual injury rating on 0 to 100 scale (0 no effect, 100 complete control), approx. 10 d; for Plant response rating, Blackgrass: 500 g ai/ha, 0 to 100 scale, 0 no effect, 100 complete control
# Outline: as §1
SMILES,"Plant response rating, Barnyardgrass [1]","Barnyardgrass plant response rating (0 to 100 scale, 0 is no effect, 100 is complete control) [1]","Plant response rating, Ragweed [2]","Plant response rating, Kochia (Kochia (Kochia scoparia) [3])","Kochia plant response rating (0 to 100 scale, 0 is no effect, 100 is complete control) (Kochia (Kochia scoparia) [3])","Plant response rating, Pigweed [4]","Pigweed plant response rating (0 to 100 scale, 0 is no effect, 100 is complete control) [4]","Plant response rating, Ryegrass, Italian [5]","Ryegrass, Italian plant response rating (0 to 100 scale, 0 is no effect, 100 is complete control) [5]","Plant response rating, Foxtail, Giant [6]","Foxtail, Giant plant response rating (0 to 100 scale, 0 is no effect, 100 is complete control) [6]","Plant response rating, Pigweed ([10]; 31 g ai/ha)","Plant response rating, Pigweed ([10]; 62 g ai/ha)","Plant response rating, Pigweed ([10]; 125 g ai/ha)","Plant response rating, Pigweed ([10]; 250 g ai/ha)",Barnyardgrass plant response rating [11],"Plant response rating, Barnyardgrass [11]",Ragweed plant response rating [12],"Plant response rating, Ragweed [12]",Galium plant response rating [13],further results
O=C1NCC(c2cccc(OC(F)F)c2)C1C(=O)Nc1ccc(F)cc1F (centres unmarked) [Compound 421],90,90,30,70,80,20,40,0,30,90,90,0,0,35,60,70,90,20,30,50,"Ragweed plant response rating (0 to 100 scale, 0 is no effect, 100 is complete control) [2]: 40; Plant response rating, Barnyardgrass ([7]; 500 g ai/ha): 75; Plant response rating, Sedge, Umbrella ([8]; 500 g ai/ha): 0; Plant response rating, Rice (rice (Oryra sativa); 500 g ai/ha): 15; Plant response rating, Ducksalad ([9]; 500 g ai/ha): 100; Plant response rating, Galium [13]: 60; Corn plant response rating (corn (Zea mays)): 0; Plant response rating, Corn (corn (Zea mays)): 70; Kochia plant response rating (Kochia (Kochia scoparia) [14]): 0; Plant response rating, Kochia (Kochia (Kochia scoparia) [14]): 20; Wheat plant response rating [15]: 0; Plant response rating, Wheat [15]: 40; Pigweed plant response rating [16]: 0; Plant response rating, Pigweed [16]: 30; Ryegrass, Italian plant response rating [17]: 20; Plant response rating, Ryegrass, Italian [17]: 40; Foxtail, Giant plant response rating [18]: 80; Plant response rating, Foxtail, Giant [18]: 90; Blackgrass plant response rating [19]: 20; Plant response rating, Blackgrass [19]: 50"
CN1CC(c2cccc(OC(F)(F)C(F)F)c2)C(C(=O)Nc2ccc(F)c(F)c2F)C1=O (centres unmarked) [Compound 429],90,90,50,70,80,80,80,70,80,90,100,75,85,90,100,90,90,30,50,70,"Plant response rating, Barnyardgrass ([7]; 250 g ai/ha): 65; Plant response rating, Sedge, Umbrella ([8]; 250 g ai/ha): 0; Plant response rating, Rice (rice (Oryra sativa); 250 g ai/ha): 15; Plant response rating, Ducksalad ([9]; 250 g ai/ha): 100; Plant response rating, Galium [13]: 70; Corn plant response rating (corn (Zea mays)): 70; Plant response rating, Corn (corn (Zea mays)): 80; Kochia plant response rating (Kochia (Kochia scoparia) [14]): 60; Plant response rating, Kochia (Kochia (Kochia scoparia) [14]): 70; Wheat plant response rating [15]: 50; Plant response rating, Wheat [15]: 60; Pigweed plant response rating [16]: 70; Plant response rating, Pigweed [16]: 80; Ryegrass, Italian plant response rating [17]: 60; Plant response rating, Ryegrass, Italian [17]: 80; Foxtail, Giant plant response rating [18]: 90; Plant response rating, Foxtail, Giant [18]: 90; Blackgrass plant response rating [19]: 50; Plant response rating, Blackgrass [19]: 70"
CN1CC(c2cccc(OC(F)(F)C(F)F)c2)C(C(=O)Nc2ccccc2C(F)(F)F)C1=O (centres unmarked) [Compound 431],90,90,40,30,70,70,90,70,70,90,100,40,60,75,85,80,90,20,60,60,"Ragweed plant response rating (0 to 100 scale, 0 is no effect, 100 is complete control) [2]: 70; Plant response rating, Barnyardgrass ([7]; 250 g ai/ha): 40; Plant response rating, Sedge, Umbrella ([8]; 250 g ai/ha): 0; Plant response rating, Rice (rice (Oryra sativa); 250 g ai/ha): 25; Plant response rating, Ducksalad ([9]; 250 g ai/ha): 100; Plant response rating, Galium [13]: 60; Corn plant response rating (corn (Zea mays)): 60; Plant response rating, Corn (corn (Zea mays)): 70; Kochia plant response rating (Kochia (Kochia scoparia) [14]): 40; Plant response rating, Kochia (Kochia (Kochia scoparia) [14]): 50; Wheat plant response rating [15]: 40; Plant response rating, Wheat [15]: 60; Pigweed plant response rating [16]: 50; Plant response rating, Pigweed [16]: 60; Ryegrass, Italian plant response rating [17]: 60; Plant response rating, Ryegrass, Italian [17]: 40; Foxtail, Giant plant response rating [18]: 80; Plant response rating, Foxtail, Giant [18]: 90; Blackgrass plant response rating [19]: 60; Plant response rating, Blackgrass [19]: 60"
